# Reference: patent US20230277698A1, “SILICON-CONTAINING LIGAND COMPOUNDS” (Technische Universität München, priority 2020, published 2023)
# Tests used:
# [1] = tested on: LNCaP cells; test: Internalization studies on LNCaP cells; assay type: cell-based; conditions: 177Lu-labelled, c=1.0 nM, 1 hour, 37 °C; % of reference ligand ([125I]I-BA)KuE (c=0.2 nM); corrected for non-specific binding (PMPA); mean±SD, n=3-6
# Experimental: (§1) PSMA-positive LNCAP cells (300265; Cell Lines Service, Eppelheim, Germany) were cultivated in Dulbecco modified Eagle medium/Nutrition Mixture F-12 with Glutamax (1:1) (DMEM-F12, Biochrom, Berlin, Germany) supplemented with fetal bovine serum (10%, FBS Zellkultur, Berlin, Germany) and kept at 37° C. in a humidified CO2 atmosphere (5%). A mixture of trypsin and EDTA (0.05%, 0.02%) in PBS (Biochrom) was used in order to harvest cells. Cells were counted with a Neubauer hemocytometer (Paul Marienfeld, Lauda-Königshofen, Germany).
# For internalization studies, LNCaP cells were harvested 24±2 hours before the experiment and seeded in poly-L-lysine coated 24-well plates (1.25×10^5 cells in 1 mL/well, Greiner Bio-One, Kremsmünster, Austria). After removal of the culture medium, the cells were washed once with 500 μL DMEM-F12 (5% BSA) and left to equilibrate for at least 15 min at 37° C. in 200 μL DMEM-F12 (5% BSA). Each well was treated with either 25 μL of either DMEM-F12 (5% BSA, control) or 25 μL of a 100 μM PMPA (2-(Phosphonomethyl)-pentandioic acid, Tocris Bioscience, Bristol, UK) solution in PBS, for blockade. Next, 25 μL of the radioactive-labelled PSMA inhibitor (10.0 nM in PBS) was added and the cells were incubated at 37° C. for 60 min. The experiment was terminated by placing the 24-well plate on ice for 3 min and consecutive removal of the medium. Each well was carefully washed with 250 μL of ice-cold HBSS. Both fractions from the first steps, representing the amount of free radioligand, were combined. Removal of surface bound activity was accomplished by incubation of the cells with 250 μL of ice-cold PMPA (10 μM in PBS) solution for 5 min and rinsed again with another 250 μL of ice-cold PBS. The internalized activity was determined by incubation of the cells in 250 μL 1 M aqueous NaOH for at least 10 min. The obtained fractions were combined with those of the subsequent wash step with 250 μL 1 M aqueous NaOH. Each experiment (control and blockade) was performed in triplicate. Free, surface bound and internalized activity was quantified in a γ-counter. All internalization studies were accompanied by external reference studies, using ([^125I]l-BA)KuE (c=0.2 nM), which were performed analogously. Data were corrected for non-specific binding and normalized to the specific-internalization observed for the radioiodinated reference compound.
# Data is corrected for non-specific binding (10 μmol PMPA) and expressed as mean±SD (n=3-6): […]
# [2] = biological target: T1, PSMA (Homo sapiens, UniProt Q04609); test: PSMA affinity (IC50), competition with ([125I]I-BA)KuE on LNCaP cells; conditions: natLu complexes; LNCaP cells 150000 cells/well, ([125I]I-BA)KuE c=0.2 nM, 1 h, 4 °C, HBSS+1% BSA; mean±SD, n=3; read-out: IC50 (binding affinity to PSMA)
# T1 construct: PSMA-positive LNCAP cells (300265; Cell Lines Service, Eppelheim, Germany); host or cells: LNCaP cells
# Experimental: as §1
# In the case of metal-complexed ligands, the crude reaction mixture was diluted analogously, without further purification. Cells were harvested 24±2 hours prior to the experiment and seeded in 24-well plates (1.5×10^5 cells in 1 mL/well). After removal of the culture medium, the cells were carefully washed with 500 μL of HBSS, supplemented with 1% bovine serum albumin (BSA, Biowest, Nuaillé, France) and left 15 min on ice for equilibration in 200 μL HBSS (1% BSA). Next, 25 μL per well of solutions, containing either HBSS (1% BSA, control) or the respective ligand in increasing concentration ([…] in HBSS) were added with subsequent addition of 25 μL of [^125I]-BA-KuE (2.0 nM) in HBSS (1% BSA). After incubation on ice for 60 min, the experiment was terminated by removal of the medium and consecutive rinsing with 200 μL of HBSS (1% BSA). The media of both steps were combined in one fraction and represent the amount of free radioligand. Afterwards, the cells were lysed with 250 μL of 1 M aqueous NaOH for at least 10 min. After a washing step (250 μL of 1 M NaOH), both fractions, representing the amount of bound ligand, were united. Quantification of all collected fractions was accomplished in a γ-counter. PSMA-affinity determinations were carried out at least three times per ligand.
# Affinities were determined using LNCaP cells (150000 cells/well) and ([^125I]I-BA)KuE (c=0.2 nM) as the radioligand (1 h, 4° C., HBSS+1% BSA). Data are expressed as mean±SD (n=3).
# [3] = Octanol-water partition coefficient; assay type: physicochemical; conditions: 177Lu-labelled; n-octanol/PBS pH 7.4; n=6
# Experimental: Approximately 1 MBq of the labelled tracer was dissolved in 1 mL of a 1:1 mixture (v/v) of PBS (pH 7.4) and n-octanol in a reaction vial (1.5 mL). After vigorous mixing of the suspension for 3 minutes at room temperature, the vial was centrifuged at 15000 g for 3 minutes (Biofuge 15, Heraeus Sepatech, Osterode, Germany) and 100 μL aliquots of both layers were measured in a gamma counter. The experiment was repeated at least six times.
# FIG. 5 and the following table summarize log PO/W values of the synthesized radiolabeled ^177Lu-PSMA ligand compounds and ^177Lu-references (n=6).
# T1 sequence (Q04609 whole entry): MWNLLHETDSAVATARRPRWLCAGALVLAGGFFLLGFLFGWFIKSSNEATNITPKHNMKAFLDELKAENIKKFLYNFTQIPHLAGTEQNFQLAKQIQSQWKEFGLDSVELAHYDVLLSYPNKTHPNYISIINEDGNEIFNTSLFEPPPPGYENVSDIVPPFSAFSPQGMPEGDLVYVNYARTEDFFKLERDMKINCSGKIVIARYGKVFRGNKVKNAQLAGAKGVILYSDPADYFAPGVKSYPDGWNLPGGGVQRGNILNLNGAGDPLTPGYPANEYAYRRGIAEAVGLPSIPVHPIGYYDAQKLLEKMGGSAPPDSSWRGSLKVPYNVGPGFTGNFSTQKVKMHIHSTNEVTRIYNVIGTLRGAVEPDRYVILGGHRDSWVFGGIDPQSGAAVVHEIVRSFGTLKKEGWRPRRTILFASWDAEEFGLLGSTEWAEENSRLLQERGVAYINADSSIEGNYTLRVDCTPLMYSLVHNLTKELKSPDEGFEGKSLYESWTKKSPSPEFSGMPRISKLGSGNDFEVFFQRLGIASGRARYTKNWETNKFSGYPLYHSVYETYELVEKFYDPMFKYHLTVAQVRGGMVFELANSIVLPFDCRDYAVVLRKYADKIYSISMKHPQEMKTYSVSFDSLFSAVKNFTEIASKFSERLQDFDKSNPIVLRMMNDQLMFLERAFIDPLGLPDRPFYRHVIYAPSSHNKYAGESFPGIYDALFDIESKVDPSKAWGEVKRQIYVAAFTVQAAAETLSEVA
Structure (SMILES),Internalization (% IBA) [1] [% IBA],IC50 [2] [nM],Log PO/W [3]
CC(C)(C)[Si](O)(c1ccc(C(=O)NC[C@@H](NC(=O)CC[C@@H](C(=O)O)N2CCN(CC(=O)O)CCN(CC(=O)O)CCN(CC(=O)O)CC2)C(=O)N[C@H](CCCCNC(=O)CCC(=O)NCCC[C@@H](NC(=O)CC[C@H](NC(=O)N[C@@H](CCC(=O)O)C(=O)O)C(=O)O)C(=O)O)C(=O)O)cc1)C(C)(C)C [7.3-SiOH],225 ± 23,5.9 ± 1.4,−3.9 ± 0.1
CC(C)(C)[Si](O)(c1ccc(C(=O)NC[C@@H](NC(=O)CC[C@@H](C(=O)O)N2CCN(CC(=O)O)CCN(CC(=O)O)CCN(CC(=O)O)CC2)C(=O)N[C@H](CO)C(=O)NCCC(=O)NCCC(=O)NCCC[C@@H](NC(=O)CC[C@H](NC(=O)N[C@@H](CCC(=O)O)C(=O)O)C(=O)O)C(=O)O)cc1)C(C)(C)C [C007-SiOH],185 ± 15,7.1 ± 0.9,−4.28 ± 0.09
CC(C)(C)[Si](O)(c1ccc(C(=O)NC[C@@H](NC(=O)CC[C@@H](C(=O)O)N2CCN(CC(=O)O)CCN(CC(=O)O)CCN(CC(=O)O)CC2)C(=O)NCC(=O)N[C@@H](CCCCNC(=O)CCC(=O)NCCC[C@@H](NC(=O)CC[C@H](NC(=O)N[C@@H](CCC(=O)O)C(=O)O)C(=O)O)C(=O)O)C(=O)O)cc1)C(C)(C)C [E102-SiOH],203 ± 15,8.4 ± 2.4,−4.14 ± 0.08
CC(C)(C)[Si](O)(c1ccc(C(=O)NC[C@@H](NC(=O)CCCCCNC(=O)CCCNC(=O)CC[C@@H](NC(=O)CCC(NC(=O)N[C@@H](CCC(=O)O)C(=O)O)C(=O)O)C(=O)O)C(=O)NCC(=O)N[C@@H](CCCCNC(=O)CC[C@@H](C(=O)O)N2CCN(CC(=O)O)CCN(CC(=O)O)CCN(CC(=O)O)CC2)C(=O)O)cc1)C(C)(C)C (stereo partly drawn) [E104-SiOH],103 ± 2,9 ± 2.2,−3.77 ± 0.16
CC(C)(C)[Si](O)(c1ccc(C(=O)N[C@H](CCC(=O)NC[C@@H](NC(=O)CC[C@@H](C(=O)O)N2CCN(CC(=O)O)CCN(CC(=O)O)CCN(CC(=O)O)CC2)C(=O)NCCCCCC(=O)NCCC[C@@H](NC(=O)CC[C@H](NC(=O)N[C@@H](CCC(=O)O)C(=O)O)C(=O)O)C(=O)O)C(=O)O)cc1)C(C)(C)C [P105-SiOH],185 ± 4,9.8 ± 0.4,−3.94 ± 0.07
CC(C)(C)[Si](O)(c1ccc(C[N+](C)(C)CC(=O)NCCC[C@@H](NC(=O)CC[C@@H](C(=O)O)N2CCN(CC(=O)O)CCN(CC(=O)O)CCN(CC(=O)O)CC2)C(=O)NCCCCCC(=O)NCCC[C@@H](NC(=O)CC[C@H](NC(=O)N[C@@H](CCC(=O)O)C(=O)O)C(=O)O)C(=O)O)cc1)C(C)(C)C [P110-SiOH],46 ± 2,42.2 ± 6.2,−4.11 ± 0.07
"O=C(O)CC[C@H](NC(=O)N[C@@H](CCCCNC(=O)[C@H](Cc1ccc2ccccc2c1)NC(=O)[C@H]1CC[C@H](CNC(=O)CN2CCN(CC(=O)O)CCN(CC(=O)O)CCN(CC(=O)O)CC2)CC1)C(=O)O)C(=O)O [PSMA-617, reference compound]",160 ± 2,3.8 ± 1.7,−4.1 ± 0.1
"CC(C)(C)[Si](F)(c1ccc(C(=O)NC[C@@H](NC(=O)CC[C@@H](C(=O)O)N2CCN(CC(=O)O)CCN(CC(=O)O)CCN(CC(=O)O)CC2)C(=O)N[C@H](CCCCNC(=O)CCC(=O)NCCC[C@@H](NC(=O)CC[C@H](NC(=O)N[C@@H](CCC(=O)O)C(=O)O)C(=O)O)C(=O)O)C(=O)O)cc1)C(C)(C)C [rhPSMA-7.3, reference compound]",162 ± 14,8 ± 1.6,−3.8 ± 0.1
"CC(C)(C)[Si](F)(c1ccc(C(=O)NC[C@@H](NC(=O)CN2CCN(CC(=O)O)CCN(CC(=O)O)CCN(CC(=O)O)CC2)C(=O)N[C@H](CCCCNC(=O)CCC(=O)NCCC[C@@H](NC(=O)CC[C@H](NC(=O)N[C@@H](CCC(=O)O)C(=O)O)C(=O)O)C(=O)O)C(=O)O)cc1)C(C)(C)C [rhPSMA-10, reference compound]",231 ± 57,2.8 ± 0.7,−3.6 ± 0.1
